Data: patent US7109225B2, “Substituted oxazole derivatives” (Hofmann-la Roche Inc., priority 2002, dated 2006)

Structure (SMILES)	melting point [°C]
C=CCCO[C@@H](Cc1ccc(OCCc2nc(C(C)(C)C)oc2C)c2ccsc12)C(=O)O [Example 7, (S)-2-But-3-enyloxy-3-{4-[2-(2-tert-butyl-5-methyl-oxazol-4-yl)-ethoxy]-benzo[b]thiophen-7-yl}-propionic acid]	70 to 71
CCO[C@@H](Cc1ccc(OCCc2nc(C(C)(C)C)oc2C)c2ccsc12)C(=O)O [Example 6, (S)-3-{4-[2-(2-tert-Butyl-5-methyl-oxazol-4-yl)-ethoxy]-benzo[b]thiophen-7-yl}-2-ethoxy-propionic acid]	155 to 156
CCOC(Cc1cc(C)c(OCCc2nc(C(C)(C)C)oc2C)c(C)c1)C(=O)O (stereo not drawn) [Example 16, 3-{4-[2-(2-tert-Butyl-5-methyl-oxazol-4-yl)-ethoxy]-3,5-dimethyl-phenyl}-2-ethoxy-propionic acid]	104 to 106
CCCOC(Cc1ccc(OCCc2nc(C3CCCCC3)oc2C)c2ccccc12)C(=O)O (stereo not drawn) [Example 28, 3-{4-[2-(2-Cyclohexyl-5-methyl-oxazol-4-yl)-ethoxy]-naphthalen-1-yl}-2-propoxy-propionic acid]	106 to 107
CCOC(Cc1ccc(OCc2nc(C(C)(C)C)oc2C)c(C)c1)C(=O)O (stereo not drawn) [Example 21, 3-[4-(2-tert-Butyl-5-methyl-oxazol-4-ylmethoxy)-3-methyl-phenyl]-2-ethoxy-propionic acid]	95 to 97
CCOC(Cc1ccc(OCc2nc(C(C)(C)C)oc2C)c2ccsc12)C(=O)O (stereo not drawn) [Example 19, 3-[4-(2-tert-Butyl-5-methyl-oxazol-4-ylmethoxy)-benzo[b]thiophen-7-yl]-2-ethoxy-propionic acid]	179 to 180
CCCOC(Cc1ccc(OCc2nc(C(C)(C)C)oc2C)c2ccccc12)C(=O)O (stereo not drawn) [Example 24, 3-[4-(2-tert-Butyl-5-methyl-oxazol-4-ylmethoxy)-naphthalen-1-yl]-2-propoxy-propionic acid]	169 to 170
CCOC(Cc1ccc(OCc2nc(C(C)(C)C)oc2C)c2ccccc12)C(=O)O (stereo not drawn) [Example 22, 3-[4-(2-tert-Butyl-5-methyl-oxazol-4-ylmethoxy)-naphthalen-1-yl]-2-ethoxy-propionic acid]	185 to 186
COC(Cc1cc(C)c(OCCc2nc(C(C)(C)C)oc2C)c(C)c1)C(=O)O (stereo not drawn) [Example 15, 3-{4-[2-(2-tert-Butyl-5-methyl-oxazol-4-yl)-ethoxy]-3,5-dimethyl-phenyl}-2-methoxy-propionic acid]	78 to 80
CCOC(Cc1ccc(OCCc2nc(C(C)(C)C)oc2C)c2ccsc12)C(=O)O (stereo not drawn) [Example 9, 3-{4-[2-(2-tert-Butyl-5-methyl-oxazol-4-yl)-ethoxy]-benzo[b]thiophen-7-yl}-2-ethoxy-propionic acid]	152 to 153
Cc1oc(C(C)(C)C)nc1COc1ccc(CC(OC(C)C)C(=O)O)c2sccc12 (stereo not drawn) [Example 23, 3-[4-(2-tert-Butyl-5-methyl-oxazol-4-ylmethoxy)-benzo[b]thiophen-7-yl]-2-isopropoxy-propionic acid]	166 to 167
CCCOC(Cc1ccc(OCCc2nc(C(C)(C)C)oc2C)c2ccccc12)C(=O)O (stereo not drawn) [Example 14, 3-{4-[2-(2-tert-Butyl-5-methyl-oxazol-4-yl)-ethoxy]-naphthalen-1-yl}-2-propoxy-propionic acid]	135 to 137
COC(Cc1ccc(OCCc2nc(C(C)(C)C)oc2C)c2ccsc12)C(=O)O (stereo not drawn) [Example 10, 3-{4-[2-(2-tert-Butyl-5-methyl-oxazol-4-yl)-ethoxy]-benzo[b]thiophen-7-yl}-2-methoxy-propionic acid]	163 to 165
COC(Cc1ccc(OCCc2nc(C(C)(C)C)oc2C)c2ccccc12)C(=O)O (stereo not drawn) [Example 13, 3-{4-[2-(2-tert-Butyl-5-methyl-oxazol-4-yl)-ethoxy]-naphthalen-1-yl}-2-methoxy-propionic acid]	141 to 143

Continued, values first:

melting point [°C]	Structure (SMILES)
138 to 140	CCOC(Cc1ccc(OCCCc2nc(C(C)(C)C)oc2C)c2ccccc12)C(=O)O (racemic) [Example 56, [rac]-3-{4-[3-(2-tert-Butyl-5-methyl-oxazol-4-yl)-propoxy]-naphthalen-1-yl}-2-ethoxy-propionic acid]
120 to 121	CCOC(Cc1ccc(OCCc2nc(C(CC)CC)oc2C)c2ccsc12)C(=O)O (racemic) [Example 68, [rac]-2-Ethoxy-3-(4-{2-[2-(1-ethyl-propyl)-5-methyl-oxazol-4-yl]-ethoxy}-benzo[b]thiophen-7-yl)-propionic acid]
71 to 72	Cc1oc(C2CC2)nc1COc1ccc(CC(OC(C)C)C(=O)O)c2sccc12 (stereo not drawn) [Example 42, 3-[4-(2-Cyclopropyl-5-methyl-oxazol-4-ylmethoxy)-benzo[b]thiophen-7-yl]-2-isopropoxy-propionic acid]
113 to 117	CCOC(Cc1ccc(OCCCc2nc(CC)oc2C)c2ccccc12)C(=O)O (racemic) [Example 65, [rac]-2-Ethoxy-3-{4-[3-(2-ethyl-5-methyl-oxazol-4-yl)-propoxy]-naphthalen-1-yl}-propionic acid]
125 to 126	Cc1oc(C(C)C)nc1CCCOc1ccc(CC(OC(C)C)C(=O)O)c2sccc12 (racemic) [Example 62, [rac]-2-Isopropoxy-3-{4-[3-(2-isopropyl-5-methyl-oxazol-4-yl)-propoxy]-benzo[b]thiophen-7-yl}-propionic acid]
88 to 89	CCCOC(Cc1ccc(OCc2nc(C3CC3)oc2C)c2ccsc12)C(=O)O (stereo not drawn) [Example 41, 3-[4-(2-Cyclopropyl-5-methyl-oxazol-4-ylmethoxy)-benzo[b]thiophen-7-yl]-2-propoxy-propionic acid]
84 to 85	CCOC(Cc1ccc(OCCc2nc(CC)oc2C)c2ccsc12)C(=O)O (racemic) [Example 66, [rac]-2-Ethoxy-3-{4-[2-(2-ethyl-5-methyl-oxazol-4-yl)-ethoxy]-benzo[b]thiophen-7-yl}-propionic acid]
54 to 56	CCOC(Cc1ccc(OCCCc2nc(C(CC)CC)oc2C)c2ccsc12)C(=O)O (racemic) [Example 67, [rac]-2-Ethoxy-3-(4-{3-[2-(1-ethyl-propyl)-5-methyl-oxazol-4-yl]-propoxy}-benzo[b]thiophen-7-yl)-propionic acid]
94 to 95	CCOC(Cc1ccc(OCCCc2nc(C(C)(C)C)oc2CC)c2ccsc12)C(=O)O (racemic) [Example 53, [rac]-3-{4-[3-(2-tert-Butyl-5-ethyl-oxazol-4-yl)-propoxy]-benzo[b]thiophen-7-yl}-2-ethoxy-propionic acid]
129 to 130	Cc1oc(C2CC2)nc1COc1ccc(CC(OC(C)C)C(=O)O)c2ccccc12 (stereo not drawn) [Example 40, 3-[4-(2-Cyclopropyl-5-methyl-oxazol-4-ylmethoxy)-naphthalen-1-yl]-2-isopropoxy-propionic acid]
118 to 119	Cc1oc(C(C)(C)C)nc1CCCOc1ccc(CC(OC(C)C)C(=O)O)c2ccccc12 (racemic) [Example 55, [rac]-3-{4-[3-(2-tert-Butyl-5-methyl-oxazol-4-yl)-propoxy]-naphthalen-1-yl}-2-isopropoxy-propionic acid]
166 to 168	CCOC(Cc1ccc(OCc2nc(C3CC3)oc2C)c2ccccc12)C(=O)O (stereo not drawn) [Example 38, 3-[4-(2-Cyclopropyl-5-methyl-oxazol-4-ylmethoxy)-naphthalen-1-yl]-2-ethoxy-propionic acid]
153 to 154	CCOC(Cc1ccc(OCc2nc(C3CC3)oc2C)c2ccsc12)C(=O)O (stereo not drawn) [Example 43, 3-[4-(2-Cyclopropyl-5-methyl-oxazol-4-ylmethoxy)-benzo[b]thiophen-7-yl]-2-ethoxy-propionic acid]
110 to 113	COC(Cc1ccc(OCCCc2nc(C(C)(C)C)oc2C)c2ccsc12)C(=O)O (racemic) [Example 58, [rac]-3-{4-[3-(2-tert-Butyl-5-methyl-oxazol-4-yl)-propoxy]-benzo[b]thiophen-7-yl}-2-methoxy-propionic acid]
140 to 141	CCCOC(Cc1ccc(OCCCc2nc(C(C)(C)C)oc2C)c2ccccc12)C(=O)O (racemic) [Example 57, [rac]-3-{4-[3-(2-tert-Butyl-5-methyl-oxazol-4-yl)-propoxy]-naphthalen-1-yl}-2-propoxy-propionic acid]
125 to 126	CCOC(Cc1ccc(OCCCc2nc(C(C)(C)C)oc2C)c2ccsc12)C(=O)O (racemic) [Example 54, [rac]-3-{4-[3-(2-tert-Butyl-5-methyl-oxazol-4-yl)-propoxy]-benzo[b]thiophen-7-yl}-2-ethoxy-propionic acid]
